Converted amounts (≈) assume the structure as drawn.
What was measured:
Pseudomonas aeruginosa [1] = assay: Compound was evaluated for in vitro antibacterial activity against gram negative organism Pseudomonas aeruginosa strain DRCC 135; type: functional
Pseudomonas fluorescens [2] = assay: Compound was evaluated for in vitro antibacterial activity against gram negative organism Pseudomonas fluorescence strain DRCC 008; type: functional
Salmonella typhimurium = assay: Compound was evaluated for in vitro antibacterial activity against gram negative organism Salmonella Typhimurium MTCC 98; type: functional, Salmonella enterica subsp. enterica serovar Typhimurium; details: Salmonella enterica
Staphylococcus aureus [3] = assay: Compound was evaluated for in vitro antibacterial activity against gram positive organism Staphylococcus aureus strain MTCC 737; type: functional
Escherichia coli [4] = assay: Compound was evaluated for in vitro antibacterial activity against gram negative organism Escherichia coli strain ATCC 35218; type: functional
Enterococcus faecalis [5] = assay: Compound was evaluated for in vitro antibacterial activity against gram positive organism Streptococcus faecalis strain ATCC 51299; type: functional
Escherichia coli [6] = assay: Compound was evaluated for in vitro antibacterial activity against gram negative organism Escherichia coli strain DRCC 133; type: functional
Klebsiella pneumoniae [7] = assay: Compound was evaluated for in vitro antibacterial activity against gram negative organism Klebsiella pneumoniae strain DRCC 132; type: functional
Klebsiella pneumoniae [8] = assay: Compound was evaluated for in vitro antibacterial activity against gram negative organism Klebsiella pneumoniae strain ATCC 10031; type: functional
Pseudomonas aeruginosa [9] = assay: Compound was evaluated for in vitro antibacterial activity against gram negative organism Pseudomonas aeruginosa strain DRCC 131; type: functional
Staphylococcus aureus [10] = assay: Compound was evaluated for in vitro antibacterial activity against gram positive organism Staphylococcus aureus strain ATCC 33591; type: functional
[11] = tested on: Staphylococcus epidermidis; assay: Compound was evaluated for in vitro antibacterial activity against gram positive organism Staphylococcus epidermidis strain ATCC 12228; type: functional
Klebsiella pneumoniae [12] = assay: Compound was evaluated for in vitro antibacterial activity against gram negative organism Klebsiella pneumoniae strain DRCC 136; type: functional
Enterococcus faecalis [13] = assay: Compound was evaluated for in vitro antibacterial activity against gram positive organism Streptococcus faecalis strain ATCC 29212; type: functional
Streptococcus pyogenes = assay: Compound was evaluated for in vitro antibacterial activity against gram positive organism Streptococcus pyogenes strain DRCC 092; type: functional
Pseudomonas aeruginosa [14] = assay: Compound was evaluated for in vitro antibacterial activity against gram negative organism Pseudomonas aeruginosa strain MTCC 1688; type: functional
Salmonella typhi = assay: Compound was evaluated for in vitro antibacterial activity against gram negative organism Salmonella typhi strain MTCC 531; type: functional, Salmonella enterica subsp. enterica serovar Typhi; details: Salmonella enterica
Pseudomonas aeruginosa [15] = assay: Compound was evaluated for in vitro antibacterial activity against gram negative organism Pseudomonas aeruginosa strain DRCC 137; type: functional
Staphylococcus aureus [16] = assay: Compound was evaluated for in vitro antibacterial activity against gram positive organism Staphylococcus aureus strain ATCC 33592; type: functional
Escherichia coli [17] = assay: Compound was evaluated for in vitro antibacterial activity against gram negative organism Escherichia coli strain DRCC 134; type: functional
Enterococcus faecalis [18] = assay: Compound was evaluated for in vitro antibacterial activity against gram positive organism Streptococcus faecalis strainATCC 49384; type: functional; details: ATCC 49384
Staphylococcus aureus [19] = assay: Compound was evaluated for in vitro antibacterial activity against gram positive organism Staphylococcus aureus strainATCC 6538P; type: functional; details: ATCC 6538P
Staphylococcus aureus [20] = assay: Compound was evaluated for in vitro antibacterial activity against gram positive organism Staphylococcus aureus strain ATCC 29213; type: functional
[21] = tested on: Salmonella enterica subsp. enterica serovar Abony; assay: Compound was evaluated for in vitro antibacterial activity against gram negative organism Salmonella abony strain NCIM 2257; type: functional
Pseudomonas aeruginosa [22] = assay: Compound was evaluated for in vitro antibacterial activity against gram negative organism Pseudomonas aeruginosa strainsATCC 27853; type: functional; details: ATCC 27853
Escherichia coli [23] = assay: Compound was evaluated for in vitro antibacterial activity against gram negative organism Escherichia coli strain ATCC 25922; type: functional
Escherichia coli [24] = assay: Compound was evaluated for in vitro antibacterial activity against gram negative organism Escherichia coli strain DRCC 091; type: functional
Pseudomonas fluorescens [25] = assay: Compound was evaluated for in vitro antibacterial activity against gram negative organism Pseudomonas fluorescence strain NCIMB 10586; type: functional
Enterococcus faecalis [26] = assay: Compound was evaluated for in vitro antibacterial activity against gram positive organism Streptococcus faecalis strain ATCC 49384; type: functional
Staphylococcus aureus [27] = assay: Compound was evaluated for in vitro antibacterial activity against gram positive organism Staphylococcus aureus strain ATCC 6538P; type: functional
Pseudomonas aeruginosa [28] = assay: Compound was evaluated for in vitro antibacterial activity against gram negative organism Pseudomonas aeruginosa strains ATCC 27853; type: functional

Structure (SMILES)	MIC (Pseudomonas aeruginosa [1])	MIC (Pseudomonas fluorescens [2])	MIC (Salmonella typhimurium)	MIC (Staphylococcus aureus [3])	MIC (Escherichia coli [4])	MIC (Escherichia coli [6])	MIC (Klebsiella pneumoniae [7])	MIC (Klebsiella pneumoniae [8])	MIC (Pseudomonas aeruginosa [9])	MIC (Staphylococcus aureus [10])	MIC [11]	MIC (Klebsiella pneumoniae [12])	MIC (Enterococcus faecalis [13])	MIC (Pseudomonas aeruginosa [14])	MIC (Salmonella typhi)	MIC (Staphylococcus aureus [16])	MIC (Escherichia coli [17])	MIC (Staphylococcus aureus [20])	MIC [21]	MIC (Escherichia coli [24])	other results
N[C@@H]1CN(c2cc3c(cc2F)c(=O)c(C(=O)O)cn3C2CC2)C[C@H]1N.O=C(O)C(F)(F)F	> 8 µg/mL	1 µg/mL	> 8 µg/mL	2 µg/mL	1 µg/mL	> 8 µg/mL	> 8 µg/mL	0.125 µg/mL	> 8 µg/mL	2 µg/mL	2 µg/mL	4 µg/mL	2 µg/mL	0.5 µg/mL	1 µg/mL	8 µg/mL	> 8 µg/mL	2 µg/mL	2 µg/mL	> 8 µg/mL	MIC (Enterococcus faecalis [5]): 1 µg/mL; MIC (Streptococcus pyogenes): 1 µg/mL; MIC (Pseudomonas aeruginosa [15]): > 8 µg/mL; MIC (Enterococcus faecalis [18]): 4 µg/mL; MIC (Staphylococcus aureus [19]): 2 µg/mL; MIC (Pseudomonas aeruginosa [22]): 4 µg/mL; MIC (Escherichia coli [23]): 0.25 µg/mL
O=C(O)c1cn(C2CC2)c2cc(N3CCNCC3)c(F)cc2c1=O [CIPROFLOXACIN]	> 8 µg/mL	0.5 µg/mL (≈ 1.51 µM)	0.25 µg/mL (≈ 0.754 µM)	0.25 µg/mL (≈ 0.754 µM)	–	> 8 µg/mL	> 8 µg/mL	0.03 µg/mL (≈ 0.0905 µM)	> 8 µg/mL	0.25 µg/mL (≈ 0.754 µM)	1 µg/mL (≈ 3.02 µM)	1 µg/mL (≈ 3.02 µM)	0.125 µg/mL (≈ 0.377 µM)	0.06 µg/mL (≈ 0.181 µM)	0.25 µg/mL (≈ 0.754 µM)	4 µg/mL (≈ 12.1 µM)	> 8 µg/mL	2 µg/mL (≈ 6.04 µM)	1 µg/mL (≈ 3.02 µM)	> 8 µg/mL	MIC (Pseudomonas fluorescens [25]): > 8 µg/mL; MIC (Enterococcus faecalis [26]): 4 µg/mL (≈ 12.1 µM); MIC (Staphylococcus aureus [27]): 0.5 µg/mL (≈ 1.51 µM)
CCn1cc(C(=O)O)c(=O)c2cc(F)c(N3CCNCC3)cc21 [NORFLOXACIN]	> 8 µg/mL	0.25 µg/mL (≈ 0.783 µM)	0.5 µg/mL (≈ 1.57 µM)	4 µg/mL (≈ 12.5 µM)	0.125 µg/mL (≈ 0.391 µM)	> 8 µg/mL	> 8 µg/mL	0.03 µg/mL (≈ 0.0939 µM)	> 8 µg/mL	1 µg/mL (≈ 3.13 µM)	1 µg/mL (≈ 3.13 µM)	0.5 µg/mL (≈ 1.57 µM)	1 µg/mL (≈ 3.13 µM)	0.125 µg/mL (≈ 0.391 µM)	0.25 µg/mL (≈ 0.783 µM)	4 µg/mL (≈ 12.5 µM)	> 8 µg/mL	4 µg/mL (≈ 12.5 µM)	0.5 µg/mL (≈ 1.57 µM)	> 8 µg/mL	MIC (Pseudomonas aeruginosa [28]): 4 µg/mL (≈ 12.5 µM); MIC (Enterococcus faecalis [5]): 2 µg/mL (≈ 6.26 µM); MIC (Pseudomonas fluorescens [25]): > 8 µg/mL; MIC (Enterococcus faecalis [26]): 4 µg/mL (≈ 12.5 µM); MIC (Streptococcus pyogenes): 2 µg/mL (≈ 6.26 µM); MIC (Pseudomonas aeruginosa [15]): 2 µg/mL (≈ 6.26 µM); MIC (Staphylococcus aureus [27]): 1 µg/mL (≈ 3.13 µM); MIC (Escherichia coli [23]): 0.03 µg/mL (≈ 0.0939 µM)
